The values below come from patent US3932471A, “Azide” (priority 1973, dated 1976).

Values after ≈ are worked out from the molar mass of the structure shown. Some results are limits rather than exact numbers.

Format in all cases: in vivo
The subject of assay [1] is Southern army worm (Prodenia eridania). The experiment in a line: Southern army worm spray test (AW). The note with it: 72 h; contact activity rating, 50% mortality, three days. As for the experimental part: (§1) The compounds are evaluated for biological activity against the following representative pests: Mexican bean beetle (Epilachna varivestis), Southern army worm (Prodenia eridania), housefly (Musca domestica), bean aphid (Aphis fabae), and red spider mite (Tetranychus sp.). The last two pests are treated both by contact and systemic application.
(§2) For purposes of comparison, results obtained with known Compound 7472, Compound 7577, and aldicarb are included in the test results. Each test compound is rated using the following scale:
Southern Army Worm Spray Test
Paired fully expanded primary leaves excised from Scarlet runner bean plants are maintained in plastic tubes containing water and sprayed with the test formulation prepared as described in Example 15. After the spray deposit on the leaves is dry, the paired leaves are separated. One leaf is placed onto 1.5 percent water agar and infested with 10 newly hatched Southern army worm larvae. The covered test receptacle is held at 72° F for three days and then the percent mortality is determined. Results of this test are shown in Table 7 as AW (Southern army worm spray test).

Assay [2] deals with housefly (Musca domestica). Put plainly: Housefly spray test (HF). The settings on record: 72 h, contact activity rating, 50% mortality, three days. As for the experimental part:
as §1, §2
This test determines the insecticidal activity of the compound being tested against adult houseflies, Musca domestica. Stock formulations containing 500 ppm of each test chemical are prepared using the procedure described in Example 15 and are diluted to obtain the appropriate lower concentrations.
Ten adult flies are placed in a cylindrical screen cage 11/2 by 4 inches fabricated from 20-mesh stainless steel screening and are sprayed with 50 ml of the stock or diluted formulation. The flies are supplied food and drink from a dextrose solution by draping a paper wick over the outside of the screen cylinder and are able to feed and drink ad libitum. Percent mortality obtained is determined three days after treatment. Results of this test are shown in Table 7 as HF (housefly spray test).

Assay [3] relates to root-knot nematodes (Meloidogyne spp.). The experiment in a line: Root-knot nematocide test. The procedure: Root-knot Nematocide Test
This test is an evaluation of the effectiveness of the compound being tested against infection by root-knot nematodes (Meloidogyne spp.).
Composted greenhouse soil, diluted by one-third with clean washed sand, is infected with about two grams of knotted or galled tomato roots per pot. Treatment is accomplished by applying 25 ml of the formulated compound onto the infested soil. The formulation contains 0.056 g of Compound 7960, 1.0 ml stock emulsifier solution (0.25% Triton X-155 in acetone by volume), and 24.0 ml deionized water, giving a concentration of 2240 ppm. Lower concentrations are achieved by dilution.
After treatment with the test formulation, the soil, inoculum, and formulation are thoroughly mixed, returned to the pot, and the mixture incubated for seven days at 20° C and constant moisture. After incubation, two seedlings of Rutgers tomato transplants and three garden nasturtium (Nasturtium spp.) seeds are set in each pot. Roots are removed from the soil after three weeks of growth and rated for gall (root-knot nematode infection) formation. Nasturtium roots are evaluated only when necrosis of the tomato host has occurred. […] Each of the root systems is rated separately and the average is multiplied by 10 and subtracted from 100 to give percent nematode control.

For the compound `CNC(=O)ON=C(C)C(C)(C)C` [Compound 7472, 2,2-dimethyl-3-methylcarbamyloximinobutane, reference compound], the LC50 in assay [1] and in assay [2] was over 500 µg/mL throughout.

Turning to `CNC(=O)ON=C(CSCC(=O)OC)C(C)(C)C` [Compound 7503, 1-carbomethoxymethylthio-3,3-dimethyl-2-methylcarbamyloximinobutane], the LC50 in assay [1] and in assay [2] was over 500 µg/mL throughout.

`CNC(=O)ON=C(C)C(C)(C)SC` [Compound 7577, 3-methyl-2-methylcarbamyloximino-3-methylthiobutane, reference compound]: the LC50 in assay [1] and in assay [2] was over 500 µg/mL throughout.

As for `CNC(=O)ON=C(C)CSC` [Compound 7603, 2-methylcarbamyloximino-1-methylthiopropane], the LC50 was over 500 µg/mL in assay [1] and 16 to 32 µg/mL (≈ 90.8 to 182 µM) in assay [2].

For the compound `CNC(=O)ON=C(CSc1ccccc1)C(C)(C)C` [Compound 7718, 3,3-dimethyl-2-methylcarbamyloximino-1-phenylthiobutane], the LC50 in assay [1] was over 500 µg/mL; in assay [2], 250 to 500 µg/mL (≈ 892 to 1780 µM).

Take `CCNC(=O)ON=C(CSC)C(C)(C)C` [Compound 7797, 2-ethylcarbamyloximino-3,3-dimethyl-1-methylthiobutane]: the LC50 in assay [1] was over 500 µg/mL; in assay [2] it was 64 to 128 µg/mL (≈ 275 to 551 µM).

In the case of `C=CCNC(=O)ON=C(CSC)C(C)(C)C` [Compound 7799, 2-allylcarbamyloximino-3,3-dimethyl-1-methylthiobutane], the LC50 is over 500 µg/mL in assay [1] and 128 to 250 µg/mL (≈ 524 to 1020 µM) in assay [2].

For `CNC(=O)ON=C(C[S+](C)[O-])C(C)(C)C` (centres unmarked) [Compound 7804, 3,3-dimethyl-2-methylcarbamyloximino-1-methylsulfinylbutane], the LC50 in assay [1] and in assay [2] was 128 to 250 µg/mL (≈ 546 to 1070 µM) throughout.

As to `CSCC(=NOC(N)=O)C(C)(C)C` [Compound 7859, 2-carbamyloximino-3,3-dimethyl-1-methylthiobutane], the LC50 in assay [1] and in assay [2] was over 500 µg/mL in each case.

Take `CCSCC(=NOC(=O)NC)C(C)(C)C` [Compound 7862, 1-ethylthio-3,3-dimethyl-2-methylcarbamyloximinobutane]: the figures for the LC50 in assay [1] and in assay [2] were over 500 µg/mL and 64 to 128 µg/mL (≈ 275 to 551 µM), respectively.

Consider `CNC(=O)ON=C(CSC)C(C)C` [Compound 7867, 3-methyl-2-methylcarbamyloximino-1-methylthiobutane], for which the results for the LC50 in assay [1] and in assay [2] were over 500 µg/mL and 64 to 128 µg/mL (≈ 313 to 627 µM), respectively.

Consider `CSCC(=NOC(=O)N(C)C)C(C)(C)C` [Compound 7871, 3,3-dimethyl-2-dimethylcarbamyloximino-1-methylthiobutane], for which the LC50 in assay [1] and in assay [2] was over 500 µg/mL in each case.

For `C=CCSCC(=NOC(=O)NC)C(C)(C)C` [Compound 7897, 1-allylthio-3,3-dimethyl-2-methylcarbamyloximinobutane], the LC50 in assay [1] was over 500 µg/mL; in assay [2], 64 to 128 µg/mL (≈ 262 to 524 µM).

As to `CCC(CSC)=NOC(=O)NC` [Compound 7916, 2-methylcarbamyloximino-1-methylthiobutane], the LC50 in assay [1] was over 500 µg/mL; in assay [2], 64 to 128 µg/mL (≈ 336 to 673 µM).

Turning to `CCCC(C)(C)C(CSC)=NOC(=O)NC` [Compound 7934, 3,3-dimethyl-2-methylcarbamyloximino-1-methylthiohexane], the LC50 in assay [1] and in assay [2] was over 500 µg/mL throughout.

Consider `CNC(=O)ON=C(CSC)C(C)(C)SC` [Compound 7960, 1,3-bis(methylthio)-3-methyl-2-methylcarbamyloximinobutane], for which the LC50 in assay [1] and in assay [2] was over 500 µg/mL in each case. Moreover, the “Percent Control (nematode)” value in assay [3] (0.5 lb/A) amounted to 97%; in assay [3] (1 lb/A) it was 100%; in assay [3] (2 lb/A), 100%; in assay [3] (4 lb/A) it was 100%; in assay [3] (8 lb/A), 100%.

As for `CNC(=O)ON=C(CSC#N)C(C)(C)C` [Compound 7991, 3,3-dimethyl-2-methylcarbamyloximino-1-thiocyanatobutane], the LC50 in assay [1] and in assay [2] was over 500 µg/mL throughout.

For `CNC(=O)ON=C(C(C)SC)C(C)(C)C` (centres unmarked) [Compound 8071, 2,2-dimethyl-3-methylcarbamyloximino-4-methylthiopentane], the LC50 in assay [1] and in assay [2] was over 500 µg/mL each time.

Take `CNC(=O)ON=C(CCSC)C(C)(C)C` [Compound 8111, 4,4-dimethyl-3-methylcarbamyloximino-1-methylthiopentane]: the values for the median lethal concentration (LC50) in assay [1] and in assay [2] were over 500 µg/mL and 250 to 500 µg/mL (≈ 1080 to 2150 µM), respectively.

On to `CNC(=O)ON=C(C1SCCS1)C(C)(C)C` [Compound 8423, 1,1-ethylenedithio-3,3-dimethyl-2-methylcarbamyloximinobutane], for which the entries for the “Percent Control (nematode)” value in assay [3] (2 lb/A), in assay [3] (4 lb/A) and in assay [3] (8 lb/A) were 60%, 90% and 100%, respectively.

Turning to `CNC(=O)ON=C(CSC)C1CC1` [Compound 8465, 1-cyclopropyl-1-methylcarbamyloximino-2-methylthioethane], the values for the LC50 in assay [1] and in assay [2] were 250 to 500 µg/mL (≈ 1240 to 2470 µM) and 128 to 250 µg/mL (≈ 633 to 1240 µM), respectively.

On to `CNC(=O)ON=C(CSC)CC(C)(C)C` [Compound 8519, 4,4-dimethyl-2-methylcarbamyloximino-1-methylthiopentane], for which the LC50 in assay [1] and in assay [2] was over 500 µg/mL each time.

For the compound `CCC(C)(C)C(CSC)=NOC(=O)NC` [Compound 8520, 3,3-dimethyl-2-methylcarbamyloximino-1-methylthiopentane], the LC50 in assay [1] and in assay [2] was over 500 µg/mL in each case.

For the compound `CNC(=O)ON=C(CS(C)(=O)=O)C(C)(C)C` [Compound 8868, 3,3-dimethyl-2-methylcarbamyloximino-1-methylsulfonylbutane], the values for the LC50 in assay [1] and in assay [2] were over 500 µg/mL and 128 to 250 µg/mL (≈ 511 to 999 µM), respectively.

`CNC(=O)ON=C(CN=[N+]=[N-])C(C)(C)C` [Compound 8997, 1-azido-3,3-dimethyl-2-methylcarbamyloximinobutane]: the LC50 in assay [1] and in assay [2] was 128 to 250 µg/mL (≈ 600 to 1170 µM) throughout. Moreover, the “Percent Control (nematode)” value in assay [3] (2 lb/A) was determined as 0%; in assay [3] (4 lb/A), 100%; in assay [3] (8 lb/A), 100%.

In the case of `CNC(=O)ON=C(CSCCSC)C(C)(C)C` [Compound 9026, 3,3-dimethyl-2-methylcarbamyloximino-1-(2-methylthioethylthio)-butane], the 50% lethal concentration (LC50) in assay [1] and in assay [2] was over 500 µg/mL each time. The “Percent Control (nematode)” value in assay [3] (1 lb/A) was 30%; in assay [3] (2 lb/A), 60%; in assay [3] (4 lb/A), 70%; in assay [3] (8 lb/A) it was 90%.

`CCCC(CSC)=NOC(=O)NC` [Compound 9057, 2-methylcarbamyloximino-1-methylthiopentane]: the LC50 in assay [1] was over 500 µg/mL; in assay [2], 250 to 500 µg/mL (≈ 1220 to 2450 µM).

Regarding `CNC(=O)ON=C(CSC)CC(C)C` [Compound 9058, 4-methyl-2-methylcarbamyloximino-1-methylthiopentane], the LC50 is over 500 µg/mL in assay [1] and 250 to 500 µg/mL (≈ 1150 to 2290 µM) in assay [2].

Take `CNC(=O)O/N=C/C(C)(C)SC` [aldicarb, reference compound]: the values for the LC50 in assay [1] and in assay [2] were over 500 µg/mL and 4 to 8 µg/mL (≈ 21 to 42 µM), respectively.

For orientation: LC50 means the concentration lethal to half of the exposed cells or organisms.
